# From patent US12535491B2, “Vaccine comprising protein-targeted (PT) extracellular DNA isolated from bacterial matrix” (priority 2018, dated 2026)
# Assays:
# [1] = tested on: microbial amyloid; format: cell-based, Escherichia coli
# [2] = tested on: amyloid producing Escherichia coli strain VT-156; format: cell-based
# [3] = tested on: non-amyloid producer Escherichia coli strain RA-74; format: cell-based
# [4] = tested on: HSV-1; format: cell-based, human Herpes Virus 1
# [5] = tested on: beta-amyloid (Aβ); assay: Amount of Aβ in the brain of Tg2576 mice injected with S. aureus bacterial DNA, with or without DNase (sandwich ELISA); format: in vivo, mice (line Tg2576)
# Text: The effect on the model of increased gut permeability in mice was studied. Increased gut permeability allows increased levels of bacterial DNA in the blood circulation, leading to the increase in the level of beta amyloid (Bala, S. et al., 2014; DiBiagio, J. R. et al., 2016). DNAse prevents the appearance of a thermostable protein formed by the extracellular DNA.
# Hemizygous transgenic mice expressing familial Alzheimer's disease mutant human (line Tg2576, Hsiao et al., 1996). A total of 70 male mice were used. To identify beta-amyloid (AB) amount, one quarter brain from each animal was homogenized in 70% formic acid at a weight: volume ratio of 100 mg/ml. The homogenate was sonicated for 2 min and centrifuged at 100,000 g for 1 h. After centrifugation, the supernatant fraction was removed and neutralized with 19 vol of Tris-phosphate buffer. Samples were analyzed by a modified sandwich ELISA that detects total AB. To detect human Aβ, aliquots of homogenate were added to Nunc Maxisorb plates coated with monoclonal antibody 6E10 (Senetek) capture antibody. After incubation at 4° C. overnight, human Ab was detected by monoclonal antibody 4G8 (Senetek) conjugated to horseradish peroxidase (HRP). After washing with PBS containing 0.05% Tween 20, the bound peroxidase was detected by the TMB peroxidase kit (Kirkegaard & Perry). Plates were read at 450 nm in a standard plate reader, and unknowns were quantified by comparison to known quantities of freshly dissolved Ab40 (Bachem).
# Animals were injected daily, with increasing concentrations of S. aureus bacterial DNA. Control animals were injected with sterile water. DNase (2000 Kunitz units) was administered orally or by IV on day 1.
# [6] = tested on: SU-DHL4 target cell lines; assay: Antibody-dependent cell-mediated cytotoxicity (ADCC) assay; format: cell-based; conditions: SU-DHL4 target cells
# Procedure: The efficacies of Rituximab and Rituximab-Mod were compared based on Binding to CD20-expressing target cells and antibody-dependent cell-mediated cytotoxicity [ADCC] assays.
# The binding of Rituximab-Mod and rituximab was assessed on SU-DHL4 cell lines with high (1,000,000) CD20 receptor copy numbers. […] The ability of Rituximab-Mod and rituximab to mediate ADCC was assessed using SU-DHL4 target cell lines. The potency of Rituximab-Mod was higher than that of rituximab.
Compound,decrease in CR binding [1],Bacterial OD (570 nm) [2],"Bacterial OD (570 nm), Escherichia coli strain RA-74 [3]",also measured
CCN(CC)CCCC(C)Nc1c2ccc(Cl)cc2nc2ccc(OC)cc12 (stereo not shown) [Quinacrine],about 40%,0.657,1.406,–
C=CC[C@@H]1/C=C(\C)C[C@H](C)C[C@H](OC)[C@H]2O[C@@](O)(C(=O)C(=O)N3CCCC[C@H]3C(=O)O[C@H](/C(C)=C/[C@@H]3CC[C@@H](O)[C@H](OC)C3)[C@H](C)[C@@H](O)CC1=O)[C@H](C)C[C@@H]2OC [Tacrolimus],about 40%,0.678,1.382,"Number (%) of unaltered cells, Herpes virus of type I [4]: 30%; antiviral activity against the herpes virus (type I) [4]: has the antiviral activity"
DNase,–,–,–,Total Aβ in the brain ([5]; DNA 5 mcg + DNase 5 mcg IV): 94 ± 23 pmol/mg; Total Aβ in the brain ([5]; DNA 5 mcg + DNase 5 mcg PO): 103 ± 35 pmol/mg; Total Aβ in the brain ([5]; DNA 20 mcg + DNase 5 mcg IV): 73 ± 12 pmol/mg; Total Aβ in the brain ([5]; DNA 20 mcg + DNase 5 mcg PO): 95 ± 12 pmol/mg
Pentosan polysulfate,about 40%,–,1.416,"Bacterial OD (570 nm), Escherichia coli strain VT-56 [2]: 0.547"
rituximab,–,–,–,EC50 of target cell killing (ADCC) [6]: ~0.01 µg/mL
